Experimental data published in US12391685B2, “Inhibitors of RNA-guided nuclease target binding and uses thereof” (THE BROAD INSTITUTE, INC., priority 2018, dated 2025).

Assays:
[1] = target: T1, SpCas9 (Streptococcus pyogenes serotype M1, UniProt Q99ZW2); assay: HiBiT assay in U2OS.eGFP.PEST cells; format: cell-based, S. pyogenes; design: host or cells: U2OS.eGFP.PEST; conditions: 24 h
Protocol: HiBiT assay. For SpCas9 expression in cells, the previously described JDS246 plasmid was used (Kleinstiver et al., 2015b). ssODN donor DNA template with the HiBiT tag was purchased as single-stranded Ultramer DNA Oligonucleotides (IDT) and resuspended to 40 μM in nuclease-free water. For the assay, 2×10^5 cells were co-transfected with 300 ng Cas9 plasmid, 75 ng sgRNA plasmid and 100 ng ssODN using the DN-100 program of Lonza 4D nucleofector according to the manufacturer's protocols. For negative controls, either the sgRNA plasmid or the ssODN was omitted. 20,000 transfected cells were plated in each well of a 96-well plate (Corning 3904). Immediately after transfection, cells were treated with varying concentrations of BRD0539 or BRD3433 and incubated at 37° C. with 5% CO2. 24 h after transfection, the cells were washed once with PBS and kept in 80 μL PBS. An equal volume of the Nano-Glo HiBiT Lytic Reagent (Promega N3030), consisting of Nano-Glo HiBiT Lytic Buffer, Nano-Glo HiBiT Lytic Substrate, and LgBiT Protein, was added according to the manufacturer's protocol, and cells were incubated for 10 min at ambient temperature with shaking at 600 rpm (Schwinn et al., 2018a). The cells were then incubated for an additional 10 min without shaking at room temperature to allow equilibration of the HiBiT and LgBiT in the lysate. The lysate was then transferred to a white plate (Corning 3990) and luminescence was measured using an Envision plate reader (Perkin-Elmer) with 1 s of integration time.

[2] = target: T2, SpCas9:gRNA (Streptococcus pyogenes serotype M1, UniProt Q99ZW2); assay: In vitro DNA cleavage assay; format: biochemical, S. pyogenes; conditions: SpCas9 5 nM; read-out: apparent IC50
T2 construct: made in house; host or cells: E. coli Rosetta (DE3)
Protocol: In vitro DNA cleavage assay. Inhibition of SpCas9 nuclease activity was assessed in an in vitro DNA cleavage assay with a linearized substrate plasmid DNA. A 94 μL of preformed SpCas9:gRNA (5.3 nM) was incubated with a 3 μL DMSO solution of BRD0539 at the indicated concentrations (13.6-25 μM) for 30 min at room temperature followed by addition of 3 μL of 33.3 nM substrate DNA and incubation for additional 30 min at 37° C. The reaction was quenched by the addition of 2 μL of Proteinase K (Qiagen) for 10 min and then analyzed by 1% agarose gel and visualized by SYBR Gold (Thermofisher). The bands were quantified by Image J and plotted in GraphPad Prism.

[3] = target: T1, SpCas9; assay: Reversibility of SpCas9 inhibition (pulse-chase, eGFP-disruption assay); format: cell-based, S. pyogenes; design: made in house; host or cells: E. coli Rosetta (DE3); conditions: 15 μM BRD0539 or SpCas9:gRNA:AcrIIA4 complex, media swap 2-24 h
Protocol: Reversal of BRD0539-mediated inhibition of SpCas9 was performed in the eGFP-disruption assay where 2×10^5 U2OS.eGFP.PEST cells were nucleofected with preformed SpCas9:gRNA complex as previously discussed. Approximately 22,000 transfected cells/well were plated in 4 replicates in a 96-well plate (Corning® 3904) along with 15 μM of BRD0539 or DMSO. For AcrIIA4 reversibility experiment, a preformed SpCas9:gRNA (10 pmol) was incubated with AcrIIA4 (5×) for 10 min and then nucleofected to U2OS.eGFP.PEST cells following the aforementioned protocol. The media were swapped with the fresh media containing no BRD0539/AcrIIA4 at the indicated time point (2-24 h) and the cells were allowed to grow until 24 h post-nucleofection. Cells were then fixed using 4% paraformaldehyde and imaged with the HCS NuclearMask™ Blue Stain (Life Technologies) as the nuclear counter-staining agent. Imaging was performed with an ImageXpress Micro automated microscope (Molecular Devices) at 10× magnification under three excitation channels (blue, green and red) acquiring nine sites per well. Images were analyzed using MetaXpress software and data were plotted using GraphPad Prism 6.

[4] = target: T1, SpCas9; assay: NHEJ assay in HEK293T cells; format: cell-based, S. pyogenes; conditions: 2-10 μM, 24 h
Protocol: NHEJ assay. Approximately 8,000 cells/well were seeded in a 96-well plate 24 h before transient transfection with a total 100 ng of DN66 (mCherry—TAG—GFP reporter) and DN78 (SpCas9 and gRNA) plasmids (1:1) using Lipofectamine 2000 (Life Technologies) (Nguyen et al., 2016b). Transfected cells were incubated with the indicated amount of small molecule or DMSO for 24 h. Cells were then fixed using 4% paraformaldehyde and imaged with the HCS NuclearMask™ Blue Stain (Life Technologies) as the nuclear counter-staining agent. Imaging was performed with an ImageXpress Micro automated microscope (Molecular Devices) at 4× magnification under three excitation channels (blue, green and red) with 9 acquisition sites per well. Images were analyzed in the MetaXpress software to determine the % NHEJ and the data were plotted using GraphPad Prism 6. The Z′-value was calculated following the formula: Z′=1−(3(σ1+σ2))/(|μ1−μ2|) where σ1 and σ2 are the standard deviations of DN66 transfected wells and (DN66+DN78) transfected wells respectively. μ1 and μ2 are the mean % GFP cell population for DN66 transfected wells and (DN66+DN78) transfected wells respectively.

[5] = target: T1, SpCas9; assay: mKate2-disruption assay in HEK293T cells; format: cell-based, S. pyogenes; conditions: 1.5-5 μM, 24 h
Protocol: mKate2-disruption assay. Approximately 8,000 cells/well were seeded in a 96-well plate 24 h before transient transfection with 100 ng of either CgRNA (Addgene Plasmid #64955) or T1gRNA (Addgene Plasmid #62717) plasmids using Lipofectamine 2000 (Life Technologies). Transfected cells were allowed to grow in the indicated amount of small molecule or DMSO for 24 h. Cells were then fixed using 4% paraformaldehyde and imaged with the HCS NuclearMask™ Blue Stain (Life Technologies) as the nuclear counter-staining agent. Imaging was performed with an ImageXpress Micro automated microscope (Molecular Devices) at 20× magnification under two excitation channels (blue and red) with 9 acquisition sites per well. Images were analyzed using the MetaXpress software to determine the % mKate2 positive cells and data was plotted using GraphPad Prism 6. The Z′-value was calculated following the formula: Z′=1−(3(σ1+σ2))/(|μ1−μ2|) where σ1 and σ2 are the standard deviations of CgRNA transfected wells and T1gRNA transfected wells respectively. μ1 and μ2 are the mean % RFP^+ cell population for CgRNA transfected wells and T1gRNA transfected wells, respectively.

[6] = test system: U2OS.eGFP.PEST cells and HEK293T cells; assay: Cell viability (ATP content); conditions: 5-20 μM, 24 h

T1 sequence (Q99ZW2 whole entry): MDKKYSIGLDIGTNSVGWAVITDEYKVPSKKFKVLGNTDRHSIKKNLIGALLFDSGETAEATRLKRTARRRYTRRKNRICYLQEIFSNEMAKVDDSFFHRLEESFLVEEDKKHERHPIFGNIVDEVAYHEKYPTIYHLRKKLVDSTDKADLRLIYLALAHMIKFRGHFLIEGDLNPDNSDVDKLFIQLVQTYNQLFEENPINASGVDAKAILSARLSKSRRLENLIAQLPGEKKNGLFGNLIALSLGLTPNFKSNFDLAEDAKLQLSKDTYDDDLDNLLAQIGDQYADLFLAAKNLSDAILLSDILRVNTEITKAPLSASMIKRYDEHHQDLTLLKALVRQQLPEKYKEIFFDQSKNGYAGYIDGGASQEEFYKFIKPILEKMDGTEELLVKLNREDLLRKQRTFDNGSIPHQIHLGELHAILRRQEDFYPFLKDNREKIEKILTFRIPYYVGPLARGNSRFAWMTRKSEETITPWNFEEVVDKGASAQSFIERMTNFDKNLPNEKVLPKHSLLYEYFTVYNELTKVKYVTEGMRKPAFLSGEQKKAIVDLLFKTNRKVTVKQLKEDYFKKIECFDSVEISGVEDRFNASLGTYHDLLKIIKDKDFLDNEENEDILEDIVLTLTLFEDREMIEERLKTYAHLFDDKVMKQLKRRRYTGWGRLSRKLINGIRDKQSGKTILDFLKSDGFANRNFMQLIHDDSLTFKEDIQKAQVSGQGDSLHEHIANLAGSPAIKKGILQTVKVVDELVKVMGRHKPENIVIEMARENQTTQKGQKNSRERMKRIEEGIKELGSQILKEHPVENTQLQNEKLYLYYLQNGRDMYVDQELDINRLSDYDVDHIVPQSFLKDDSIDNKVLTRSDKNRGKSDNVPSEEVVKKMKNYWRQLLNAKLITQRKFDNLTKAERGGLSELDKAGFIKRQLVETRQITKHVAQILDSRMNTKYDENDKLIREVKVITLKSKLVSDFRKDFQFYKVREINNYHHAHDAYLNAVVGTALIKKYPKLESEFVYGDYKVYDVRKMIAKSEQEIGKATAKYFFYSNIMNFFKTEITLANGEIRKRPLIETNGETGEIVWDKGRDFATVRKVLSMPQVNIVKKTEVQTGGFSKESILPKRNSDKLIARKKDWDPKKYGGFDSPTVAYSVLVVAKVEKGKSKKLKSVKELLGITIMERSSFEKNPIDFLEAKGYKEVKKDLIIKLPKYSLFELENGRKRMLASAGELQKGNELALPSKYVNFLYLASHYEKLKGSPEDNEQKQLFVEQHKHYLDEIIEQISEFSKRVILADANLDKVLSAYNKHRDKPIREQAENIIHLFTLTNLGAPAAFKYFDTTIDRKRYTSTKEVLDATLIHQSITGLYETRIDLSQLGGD
T2 sequence (Q99ZW2 whole entry): as above

Row | SMILES | inhibition of SpCas9 in the HiBiT assay (in words) [1] | higher activity of BRD0539 than BRD3497 and BRD9419 in the HiBiT assay ([1]; tested from 4.8-15 μM) | IC50 [2] [µM] | reversibility of SpCas9 inhibition (in words) [3] | inhibition of SpCas9 in the NHEJ assay (in words) [4] | inhibition of SpCas9 in the mKate2 disruption assay (in words) [5] | cytotoxicity (in words) [6]
1 | Cc1ccc(S(=O)(=O)N2CC[C@@H]3[C@H](CO)Nc4ccc(-c5ccccc5F)cc4[C@@H]32)cc1 [BRD0539, ((3aR,4R,9bR)-8-(2-fluorophenyl)-1-tosyl-2,3,3a,4,5,9b-hexahydro-1H-pyrrolo[3,2-c]quinolin-4-yl) methanol] | dose-dependent inhibition | greater than two-fold | 22 | reversible inhibition |  |  | 
2 | OC[C@H]1Nc2ccc(-c3cccc(F)c3)cc2[C@H]2[C@@H]1CCN2Cc1ccncc1 [BRD7087, ((3aR,4S,9bR)-8-(3-Fluorophenyl)-1-(pyridin-4-ylmethyl)-2,3,3a,4,5,9b-hexahydro-1H-pyrrolo[3,2-c]quinolin-4-yl) methanol] |  |  |  |  | dose-dependent inhibition | dose-dependent inhibition | non-cytotoxic
